Patent publication US5550145A, “Potentiation of antimicrobial effects” (Bioglan AB, priority 1992, dated 1996)
In brackets after ≈: the same amount, converted by molar mass.

Experiments:
S. aureus = experiment: MIC (minimum inhibitory concentration) determination; format: cell-based
C. albicans = experiment: as above; format: cell-based
S. epidermis = experiment: as above; format: cell-based
P. ovale = experiment: as above; format: cell-based
T. rubrum = experiment: as above; format: cell-based
[1] = generally accepted; cited from earlier work
Gram positive bacteria = details: effects demonstrated only on Gram positive bacteria; cited from earlier work
aerobic bacteria = experiment: Killing effect; format: cell-based; details: aqueous solutions of tinidazole; test not described
Protocol: The composition was prepared as in Example 4. […] In particular, the product is usable for disease states such as acne and seborrhoea.

OCCCCCO [1,5-pentanediol solution, 1,5-pentanediol]
MIC value (S. aureus): 50 mg/mL (≈ 480 mM) | MIC value (C. albicans): 40 mg/mL (≈ 384 mM) | MIC value (S. epidermis): 50 mg/mL (≈ 480 mM) | MIC value (P. ovale): 20 mg/mL (≈ 192 mM) | MIC value (T. rubrum): 10 mg/mL (≈ 96 mM)

CCCCCCCCCCCC(=O)OCC(O)CO (stereo not shown) [monolaurin, monoglyceride of lauric acid]
toxicity [1]: completely non-toxic | antimicrobial properties per se (Gram positive bacteria): exhibit certain antimicrobial properties

CCCCCCCCCCCCCC(=O)OCC(O)CO (stereo not shown) [monomyristin, monoglyceride of myristic acid]
toxicity [1]: completely non-toxic | antimicrobial properties per se (Gram positive bacteria): exhibit certain antimicrobial properties

CCS(=O)(=O)CCn1c([N+](=O)[O-])cnc1C [tinidazole]
effectiveness of aqueous solutions against aerobic bacteria (aerobic bacteria): not effective
